Measured values from patent US4508711A, “Cyclic pentapeptide displaying somatostatin antagonism and method of treatment of mammals therewith” (American Cyanamid Company, priority 1984, dated 1985).

How the values were obtained:
GH levels in the rat = assay: Growth hormone (GH) levels in NEMBUTAL-anesthetized, stimulated rats (RIA); type: in vivo; settings: mean ± SE
Procedure: (§1) In this evaluation the procedures described by W. A. Murphy et al. Endocrinology 109:491-495 (1980), were employed.
In growth hormone (GH) experiments, male rats (Charles Rivers) were anesthetized with NEMBUTAL® (5 mg per 100 g/BW) which also served to maintain stimulated plasma GH levels. Exactly 30 minutes after the rats were anesthetized, 0.5 mL of saline or the test peptide in saline was administered as a sc bolus. A 1 mL blood sample was drawn from the jugular vein 15 minutes after the injection. For examining blocking effects of the analog on somatostatin, the cyclic peptide was given 5 minutes prior to somatostatin. GH levels were determined using NIADDKD rat GH RIA components.

[1] = tested on: insulin levels in hepatic portal blood; assay: Insulin levels in hepatic portal blood of fasted rats (RIA); type: in vivo, rat
Procedure: as §1
(§2) For measurement of effects on insulin and glucagon levels, rats were fasted 27-30 hours and anesthetized with NEMBUTAL® (5 mg per 100 g body wt). Exactly 21 minutes after NEMBUTAL® injection 0.5 mL of saline or saline containing test peptide was injected into the jugular vein over a 1 minute period. Five minutes later, 3.5 mL of blood were quickly drawn from the hepatic portal vein after rapid laparotomy. Blocking effects of analog on exogenous somatostatin were examined by simultaneous injection of both peptides. Plasma insulin levels were determined using matched insulin RIA kits purchased from Cambridge Nuclear, Billerica, MA. Plasma glucagon was determined using Unger 30K antibody and ^125 I-glucagon (Cambridge Nuclear) as the tracer.

[2] = tested on: glucagon levels in hepatic portal blood; assay: Glucagon levels in hepatic portal blood of fasted rats (RIA); type: in vivo, rat
Procedure: as §1, §2

## C[C@H](N)C(=O)NCC(=O)N[C@H]1CSSC[C@@H](C(=O)O)NC(=O)[C@H](CO)NC(=O)[C@H]([C@@H](C)O)NC(=O)[C@H](Cc2ccccc2)NC(=O)[C@H]([C@@H](C)O)NC(=O)[C@H](CCCCN)NC(=O)[C@H](Cc2c[nH]c3ccccc23)NC(=O)[C@H](Cc2ccccc2)NC(=O)[C@H](Cc2ccccc2)NC(=O)[C@H](CC(N)=O)NC(=O)[C@H](CCCCN)NC1=O [Somatostatin]
GH levels in the rat; Table I Experiment 1, fed rats, 0.2 μg/100 g body weight sc, blood 15 min after injection, saline 277 ± 40
  GH: 146 ± 14 ng/mL
GH levels in the rat; Table I Experiment 1, fed rats, 0.6 μg/100 g body weight sc, blood 15 min after injection, saline 277 ± 40
  GH: 78 ± 26 ng/mL
GH levels in the rat; Table I Experiment 2, fasted rats, 0.4 μg/100 g body weight, saline 403 ± 85
  GH: 107 ± 13 ng/mL
[1]; Table III Experiment 1, fasted rats, 0.4 μg/100 g iv, portal blood 5 min later, saline 67 ± 11
  Insulin (Mean ± SE): 57 ± 3 μU/mL
[1]; Table III Experiment 1, fasted rats, 2.0 μg/100 g iv, saline 67 ± 11
  Insulin (Mean ± SE): 28 ± 11 μU/mL
[1]; Table III Experiment 1, second saline set, fasted rats, 1.0 μg/100 g iv, saline 46 ± 5
  Insulin (Mean ± SE): 11 ± 2 μU/mL
[2]; Table III Experiment 1, fasted rats, 0.4 μg/100 g iv, portal blood 5 min later, saline 80 ± 5
  Glucagon (Mean ± SE): 64 ± 3 pg/mL
[2]; Table III Experiment 1, fasted rats, 2.0 μg/100 g iv, saline 80 ± 5
  Glucagon (Mean ± SE): 46 ± 4 pg/mL
[2]; Table III Experiment 1, second saline set, fasted rats, 1.0 μg/100 g iv, saline 94 ± 9
  Glucagon (Mean ± SE): 78 ± 7 pg/mL
[2]; Table III Experiment 2, fasted rats, 1.0 μg/100 g iv, saline 45 ± 3
  Glucagon (Mean ± SE): 18 ± 7 pg/mL
